In patent US5147876A, “2,6-di,2,4,6-, 2,5,6-tri and 2,4,5,6-tetra-substituted pyrimidines, their pharmaceutically acceptable salts, pharmaceutical compositions containing same and their use in the treatment of neurological diseases” (Mitsui Petrochemical Industries, Ltd., priority 1988, dated 1992):
Structures can show the parent of a compound that is named as a salt.

Experiments:
[1] = system: neuro-2a (mouse neuroblastoma cells); assay: Action on neuro-2a: proportion of cells containing outgrown neurites; assay type: cell-based; details: mean ± S.D.
Method: (§1) The effects of the compounds of this invention on neuroblastoma cells were examined by the following method.
(§2) Mouse neuro 2a cells in the logarithmic growth period in the Dulbecco's modified Eagle's medium DMEM, containing 100 units/ml of penicillin G sodium and 100 micrograms/ml of streptomycin sulfate]containing 10 % of FCS were seeded in a 48-well plate so that the number of cells was 1,000 cells/well, and cultured for one day in 0.25 ml of the culture fluid in each well in an incubator containing 5 % of carbon dioxide gas in air at 37° C. Then, a 4 % aqueous glutaraldehyde solution in the same amount as a medium (0.25 ml) was added, and the culture fluid was left to stand at room temperature for 2 hours to fix the cells. After washing with water, a 0.05 % aqueous solution of methylene blue was added to stain the cells Under a microscope, the number of cells containing outgrown neurites (cells having at least one neurite with a length of at least two times as large as the long diameter of the cell) was counted visually, and the proportion of these cells in the entire cells was calculated. The well was observed over 5 or more visual fields (at least 2 % of the entire surface area of the well) continuous to the left and right from a mark put at the center of the well, and more than 200 cells was counted. One drug compound was used in 6 different concentrations at most, and three runs were conducted for each concentrations.

[2] = system: NS-20Y (mouse neuroblastoma cells); assay: Activity on NS-20Y cells: appearance of neurites; assay type: cell-based
Method: as §1, §2
Mouse neuroblastoma cells NS-20Y were similarly cultured in a dish coated with polyornithine, and the effects of the compounds were examined.

| SMILES | Number of cells having neurites with a length at least two times the diameter of each cell/total number of cells ([1]; 0.1 mM) | Number of cells having neurites with a length at least two times the diameter of each cell/total number of cells ([1]; 0.3 mM) | Number of cells having neurites with a length at least two times the diameter of each cell/total number of cells ([1]; 1 mM) | Number of cells in which neurites appeared/total number of cells ([2]; 24 hours, 0.4 mM) | Number of cells having neurites with a length at least two times the diameter of each cell/total number of cells ([1]; 0.03 mM) | further results |
| --- | --- | --- | --- | --- | --- | --- |
| CN(C(=O)c1ccc(F)cc1)c1ccnc(N2CCC(c3ccccc3)CC2)n1 [Compound 242] | 17.0 ± 2.3% | 12.8 ± 6.3% | 9.4 ± 3.9% | 6/50 |  | Number of cells in which neurites appeared/total number of cells ([2]; 24 hours, 0.2 mM): 4/50; Number of cells in which neurites appeared/total number of cells ([2]; 48 hours, 0.1 mM): 6/50; Number of cells in which neurites appeared/total number of cells ([2]; 48 hours, 0.2 mM): 11/50 |
| Cc1ccc(S(=O)(=O)O)cc1.Cc1ccccc1C(=O)N(C)c1ccnc(N2CCC(c3ccccc3)CC2)n1 [Compound 171-7] | 6.7 ± 3.1% |  |  |  | 8.5 ± 1.0% | Number of cells in which neurites appeared/total number of cells ([2]; 24 hours, 0.1 mM): 4/50; Number of cells in which neurites appeared/total number of cells ([2]; 48 hours, 0.1 mM): 2/50 |
| CN(C(=O)c1ccccc1)c1ccnc(N2CCNCC2)n1 [Compound 344] | 4.7 ± 1.8% | 4.5 ± 2.1% |  |  | 4.0 ± 1.7% | Number of cells having neurites with a length at least two times the diameter of each cell/total number of cells ([1]; 0.01 mM): 3.6 ± 0.7%; Number of cells in which neurites appeared/total number of cells ([2]; 24 hours, 0.2 mM): 3/51; Number of cells in which neurites appeared/total number of cells ([2]; 48 hours, 0.5 mM): 2/49 |
| CN(C(=O)c1ccccc1)c1ccnc(N2CCOCC2)n1 [Compound 336] | 5.8 ± 2.4% | 6.3 ± 2.8% |  |  |  | Number of cells in which neurites appeared/total number of cells ([2]; 24 hours, 0.2 mM): 3/54; Number of cells in which neurites appeared/total number of cells ([2]; 48 hours, 0.5 mM): 2/50 |
| CCOC(=O)c1cnc(NC(C)C)nc1CN(C)C [Compound 828] |  | 7.3 ± 1.6% | 6.1 ± 2.0% |  |  | Number of cells in which neurites appeared/total number of cells ([2]; 24 hours, 0.3 mM): 10/58; Number of cells in which neurites appeared/total number of cells ([2]; 24 hours, 0.5 mM): 5/59; Number of cells in which neurites appeared/total number of cells ([2]; 48 hours, 0.3 mM): 6/50; Number of cells in which neurites appeared/total number of cells ([2]; 48 hours, 0.5 mM): 5/51 |
| CC(=O)N(C)c1cc(C)nc(N2CCCCC2)n1 [Compound 384] |  | 10.4 ± 2.5% | 10.8 ± 7.2% | 8/50 |  | Number of cells in which neurites appeared/total number of cells ([2]; 48 hours, 0.4 mM): 3/50 |
| COCc1nc(N2CCCCC2)ncc1C(=O)OC [Compound 820, 2-piperidino-4-methoxymethyl-5-methoxycarbonylpyrimidine] |  |  | 8.4 ± 1.1% |  |  | Number of cells having neurites with a length at least two times the diameter of each cell/total number of cells ([1]; 3 mM): 8.8 ± 2.3%; Number of cells in which neurites appeared/total number of cells ([2]; 24 hours, 0.1 mM): 4/50; Number of cells in which neurites appeared/total number of cells ([2]; 24 hours, 0.5 mM): 5/53; Number of cells in which neurites appeared/total number of cells ([2]; 48 hours, 0.1 mM): 4/50; Number of cells in which neurites appeared/total number of cells ([2]; 48 hours, 0.25 mM): 5/55 |
| CCOC(=O)c1cnc(N2CCCCC2)nc1CNC [Compound 812] | 3.5 ± 0.5% | 3.4 ± 0.5% |  |  |  | Number of cells in which neurites appeared/total number of cells ([2]; 24 hours, 0.5 mM): 9/50; Number of cells in which neurites appeared/total number of cells ([2]; 24 hours, 1.0 mM): 11/50; Number of cells in which neurites appeared/total number of cells ([2]; 48 hours, 0.3 mM): 9/50; Number of cells in which neurites appeared/total number of cells ([2]; 48 hours, 0.5 mM): 5/51 |
| CNc1ccnc(N2CCCCC2)n1 [Compound 1014] | 4.7 ± 0.7% | 7.6 ± 1.5% |  | 9/50 |  | Number of cells in which neurites appeared/total number of cells ([2]; 24 hours, 0.1 mM): 3/50; Number of cells in which neurites appeared/total number of cells ([2]; 48 hours, 0.4 mM): 6/50 |
| CN(C(=O)c1ccccc1)c1nc(N2CCC(c3ccccc3)CC2)ncc1F [Compound 432] | 2.9 ± 1.0% | 3.6 ± 1.7% |  | 7/50 |  | Number of cells in which neurites appeared/total number of cells ([2]; 24 hours, 0.02 mM): 7/50; Number of cells in which neurites appeared/total number of cells ([2]; 48 hours, 0.4 mM): 4/50 |
| CNc1cc(C)nc(N2CCCCC2)n1 [Compound 1086] | 3.1 ± 1.3% | 8.7 ± 0.8% | 17.4 ± 1.1% | 4/50 | 1.9 ± 1.8% | Number of cells in which neurites appeared/total number of cells ([2]; 48 hours, 0.02 mM): 2/50 |
| CC(=O)N(C)c1nc(N2CCC(c3ccccc3)CC2)ncc1C [Compound 416] | 13.2 ± 1.3% | 10.8 ± 1.5% |  | 11/50 |  | Number of cells in which neurites appeared/total number of cells ([2]; 24 hours, 0.1 mM): 7/50; Number of cells in which neurites appeared/total number of cells ([2]; 48 hours, 0.1 mM): 2/50 |
| CN1C(=O)Cc2cnc(N3CCN(C(c4ccccc4)c4ccccc4)CC3)nc21 [Compound 3128, 2-(4-diphenylmethylpiperazino)-5,6-dihydro-7-methyl-6-oxo(7H)pyrrolo2,3-d]pyrimidine hydrochloride] | 14.2 ± 1.9% | 11.9 ± 4.5% |  |  |  |  |
| CNc1nc(N2CCCCC2)ncc1C [Compound 1094] | 5.4 ± 1.9% | 16.9 ± 1.2% | 10.9 ± 1.1% | 7/48 |  | Number of cells in which neurites appeared/total number of cells ([2]; 24 hours, 0.1 mM): 4/54; Number of cells in which neurites appeared/total number of cells ([2]; 48 hours, concentration printed "0. mM"): 2/50 |
| CN1C(=O)Cc2cnc(N3CCN(C(c4ccccc4)c4ccc(F)cc4)CC3)nc21 (stereo not shown) [Compound 3136] | 20.9 ± 5.3% | 7.1 ± 3.0% |  |  | 13.8 ± 4.8% | Number of cells having neurites with a length at least two times the diameter of each cell/total number of cells ([1]; 0.01 mM): 5.8 ± 0.6% |
| CN(C(=O)c1ccccc1)c1ccnc(NC2CCN(C(=O)c3ccccc3)CC2)n1 [Compound 2202] | 2.2 ± 2.0% |  |  |  |  |  |
| CNc1ccnc(N2CCC(c3ccccc3)CC2)n1.O=C(O)/C=C\C(=O)O [Compound 1026, 4-Methylamino-2-(4-phenylpiperidino)pyrimidine maleate] | 5.6 ± 2.2% |  |  |  | 3.5 ± 0.5% | Number of cells in which neurites appeared/total number of cells ([2]; 24 hours, 0.02 mM): 4/50; Number of cells in which neurites appeared/total number of cells ([2]; 24 hours, 0.1 mM): 31/50; Number of cells in which neurites appeared/total number of cells ([2]; 48 hours, 0.02 mM): 2/50 |
| COC(=O)c1cnc(NC(C)C)nc1C [Compound 800, 2-isopropylamino-4-methyl-5-methoxycarbonylpyrimidine] |  | 11.4 ± 1.2% | 25.7 ± 1.9% |  |  | Number of cells having neurites with a length at least two times the diameter of each cell/total number of cells ([1]; 3 mM): 22.3 ± 0.7%; Number of cells having neurites with a length at least two times the diameter of each cell/total number of cells ([1]; 10 mM): 16.9 ± 0.8% |
| CNc1ccnc(N2CCCc3ccccc32)n1 [Compound 1034] | 7.6 ± 2.1% | 11.3 ± 1.6% |  |  | 3.9 ± 2.8% |  |
| CN(C(=O)c1ccccc1)c1nccc(N2CCC(Cc3ccccc3)CC2)n1 [Compound 692] | 11.1 ± 2.9% |  |  |  | 5.8 ± 0.9% |  |
| Cc1ccc(S(=O)(=O)N(C)c2ccnc(N3CCC(c4ccccc4)CC3)n2)cc1 [Compound 2012] |  | 6.6 ± 3.1% |  |  | 6.6 ± 1.2% |  |
| CN(C(=O)c1ccccc1)c1ccnc(N2CCC(O)CC2)n1 [Compound 2060] |  |  | 7.6 ± 0.7% |  | 3.6 ± 0.1% |  |
| Cc1ccc(C(=O)N(C)c2ccnc(N3CCC(c4ccccc4)CC3)n2)cc1 [Compound 171-3] | 28.8 ± 3.1% | 19.5 ± 7.0% |  |  |  |  |
